# Assay results: US6919379B2, “Compounds useful in reflux disease” (AstraZeneca AB, priority 2001, dated 2005)
row,melting point,SMILES
1,136 to 138 °C,NC[C@@H](F)CS(=O)O
2,206 to 208 °C,"NC[C@H](O)CS(=O)O [Example 1, (2S)-(3-Amino-2-hydroxypropyl)sulphinic acid]"
3,210 °C,"NC[C@@H](O)CS(=O)O [Example 2, (2R)-(3-Amino-2-hydroxypropyl)sulphinic acid]"
